Legend:
Assay in all cases: scanMAX KINOMEscan (Eurofins)
Assay type in all cases: binding
TGFBR1 = TGFBR1 (Homo sapiens, UniProt P36897); conditions: compound concentration 100 nM; Entrez TGFBR1; read-out: Percent Control
Source text: (§1) Supplement cb5c00097_si_002.xlsx, sheet "Table S6 (Eurofins Selectivity)" | column: Percent Control

ROCK1 = ROCK1 (Homo sapiens, UniProt Q13464); conditions: 1000 nM, read-out: Percent Control
Source text: as §1

LATS2 = LATS2 (Homo sapiens, UniProt Q9NRM7); conditions: 1000 nM, read-out: Percent Control
Source text: as §1

PRKCD = PRKCD (Homo sapiens, UniProt Q05655); conditions: compound concentration 100 nM; Entrez PRKCD; read-out: Percent Control
Source text: as §1

SGK2 = SGK2 (Homo sapiens, UniProt Q9HBY8); conditions: 1000 nM, read-out: Percent Control
Source text: as §1

TRKC = TRKC (Homo sapiens, UniProt Q16288); conditions: 1000 nM, read-out: Percent Control
Source text: as §1

p38-gamma = p38-gamma (Homo sapiens, UniProt P53778); conditions: 1000 nM, read-out: Percent Control
Source text: as §1

AURKA = AURKA (Homo sapiens, UniProt O14965); conditions: 1000 nM, read-out: Percent Control
Source text: as §1

PDGFRA = PDGFRA (Homo sapiens, UniProt P16234); conditions: 1000 nM, read-out: Percent Control
Source text: as §1

PIP5K2C = PIP5K2C (Homo sapiens, UniProt Q8TBX8); conditions: 1000 nM, read-out: Percent Control
Source text: as §1

YSK1 = YSK1 (Homo sapiens, UniProt O00506); conditions: compound concentration 100 nM; Entrez STK25; read-out: Percent Control
Source text: as §1

SIK = SIK (Homo sapiens, UniProt P57059); conditions: 1000 nM, read-out: Percent Control
Source text: as §1

TIE2 = TIE2 (Homo sapiens, UniProt Q02763); conditions: compound concentration 100 nM; Entrez TEK; read-out: Percent Control
Source text: as §1

MLK1 = MLK1 (Homo sapiens, UniProt P80192); conditions: compound concentration 100 nM; Entrez MAP3K9; read-out: Percent Control
Source text: as §1

NEK6 = NEK6 (Homo sapiens, UniProt Q9HC98); conditions: compound concentration 100 nM; Entrez NEK6; read-out: Percent Control
Source text: as §1

CHEK1 = CHEK1 (Homo sapiens, UniProt O14757); conditions: read-out: Percent Control
Source text: as §1

FGR = FGR (Homo sapiens, UniProt P09769); conditions: read-out: Percent Control
Source text: as §1

CDC2L5 = CDC2L5 (Homo sapiens, UniProt Q14004); conditions: read-out: Percent Control
Source text: as §1

[1] = target: RPS6KA4(Kin.Dom.1-N-terminal) (Homo sapiens, UniProt O75676); conditions: compound concentration 100 nM; Entrez RPS6KA4; read-out: Percent Control
Source text: as §1

STK35 = STK35 (Homo sapiens, UniProt Q8TDR2); conditions: compound concentration 100 nM; Entrez STK35; read-out: Percent Control
Source text: as §1

PFTAIRE2 = PFTAIRE2 (Homo sapiens, UniProt Q96Q40); conditions: 1000 nM, read-out: Percent Control
Source text: as §1

STK16 = STK16 (Homo sapiens, UniProt O75716); conditions: compound concentration 100 nM; Entrez STK16; read-out: Percent Control
Source text: as §1

PKNB(M.tuberculosis) = PKNB(M.tuberculosis) (Mycobacterium tuberculosis, UniProt P9WI81); conditions: 1000 nM, read-out: Percent Control
Source text: as §1

ULK2 = ULK2 (Homo sapiens, UniProt Q8IYT8); conditions: compound concentration 100 nM; Entrez ULK2; read-out: Percent Control
Source text: as §1

SIK2 = SIK2 (Homo sapiens, UniProt Q9H0K1); conditions: compound concentration 100 nM; Entrez SIK2; read-out: Percent Control
Source text: as §1

FLT3-autoinhibited = FLT3-autoinhibited (Homo sapiens, UniProt P36888); conditions: 1000 nM, read-out: Percent Control
Source text: as §1

PDGFRB = PDGFRB (Homo sapiens, UniProt P09619); conditions: 1000 nM, read-out: Percent Control
Source text: as §1

KIT-autoinhibited = KIT-autoinhibited (Homo sapiens, UniProt P10721); conditions: 1000 nM, read-out: Percent Control
Source text: as §1

PAK6 = PAK6 (Homo sapiens, UniProt Q9NQU5); conditions: compound concentration 100 nM; Entrez PAK6; read-out: Percent Control
Source text: as §1

[2] = target: RSK1(Kin.Dom.1-N-terminal) (Homo sapiens, UniProt Q15418); conditions: compound concentration 100 nM; Entrez RPS6KA1; read-out: Percent Control
Source text: as §1

NEK4 = NEK4 (Homo sapiens, UniProt P51957); conditions: compound concentration 100 nM; Entrez NEK4; read-out: Percent Control
Source text: as §1

BRK = BRK (Homo sapiens, UniProt Q13882); conditions: 1000 nM, read-out: Percent Control
Source text: as §1

MAP4K2 = MAP4K2 (Homo sapiens, UniProt Q12851); conditions: 1000 nM, read-out: Percent Control
Source text: as §1

PAK4 = PAK4 (Homo sapiens, UniProt O96013); conditions: 1000 nM, read-out: Percent Control
Source text: as §1

CDC2L5, sequence (Q14004 whole entry): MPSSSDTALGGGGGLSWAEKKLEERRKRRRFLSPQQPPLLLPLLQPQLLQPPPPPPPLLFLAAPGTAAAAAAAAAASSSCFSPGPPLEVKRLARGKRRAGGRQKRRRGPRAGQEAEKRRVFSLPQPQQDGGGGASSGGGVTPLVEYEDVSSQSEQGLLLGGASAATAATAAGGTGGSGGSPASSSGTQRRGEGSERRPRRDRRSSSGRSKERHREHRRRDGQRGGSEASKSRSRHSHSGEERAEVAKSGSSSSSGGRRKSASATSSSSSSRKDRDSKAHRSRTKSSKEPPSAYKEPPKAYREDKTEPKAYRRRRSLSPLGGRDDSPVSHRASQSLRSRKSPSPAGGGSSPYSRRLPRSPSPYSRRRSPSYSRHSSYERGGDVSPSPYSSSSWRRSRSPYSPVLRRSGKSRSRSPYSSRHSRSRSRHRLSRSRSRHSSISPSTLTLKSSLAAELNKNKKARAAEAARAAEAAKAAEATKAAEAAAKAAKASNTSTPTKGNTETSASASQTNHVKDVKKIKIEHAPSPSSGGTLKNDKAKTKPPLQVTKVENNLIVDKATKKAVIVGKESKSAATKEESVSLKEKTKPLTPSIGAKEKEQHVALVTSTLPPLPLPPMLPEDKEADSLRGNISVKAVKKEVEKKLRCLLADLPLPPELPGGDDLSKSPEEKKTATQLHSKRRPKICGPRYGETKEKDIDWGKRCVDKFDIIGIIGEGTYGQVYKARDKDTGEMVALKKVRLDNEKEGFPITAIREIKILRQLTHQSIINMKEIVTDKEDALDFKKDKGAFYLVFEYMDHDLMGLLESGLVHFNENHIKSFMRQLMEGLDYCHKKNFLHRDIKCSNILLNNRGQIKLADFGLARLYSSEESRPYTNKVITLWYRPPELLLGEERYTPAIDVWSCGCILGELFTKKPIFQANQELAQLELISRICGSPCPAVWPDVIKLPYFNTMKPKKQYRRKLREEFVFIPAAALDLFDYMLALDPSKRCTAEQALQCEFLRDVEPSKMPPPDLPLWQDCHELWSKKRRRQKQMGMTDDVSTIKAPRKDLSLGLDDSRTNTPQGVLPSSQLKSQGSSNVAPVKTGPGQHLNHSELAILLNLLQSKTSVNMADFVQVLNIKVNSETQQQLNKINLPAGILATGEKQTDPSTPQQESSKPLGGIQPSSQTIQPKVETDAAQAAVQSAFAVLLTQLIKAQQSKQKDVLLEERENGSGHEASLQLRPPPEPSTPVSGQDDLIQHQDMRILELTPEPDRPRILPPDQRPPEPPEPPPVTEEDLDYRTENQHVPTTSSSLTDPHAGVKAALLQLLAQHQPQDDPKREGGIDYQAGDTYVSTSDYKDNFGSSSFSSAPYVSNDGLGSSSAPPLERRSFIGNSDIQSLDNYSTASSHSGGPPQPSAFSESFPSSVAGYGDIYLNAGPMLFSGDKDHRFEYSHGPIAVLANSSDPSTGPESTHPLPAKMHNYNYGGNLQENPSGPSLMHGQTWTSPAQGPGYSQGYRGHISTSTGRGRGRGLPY
CHEK1, sequence (O14757 whole entry): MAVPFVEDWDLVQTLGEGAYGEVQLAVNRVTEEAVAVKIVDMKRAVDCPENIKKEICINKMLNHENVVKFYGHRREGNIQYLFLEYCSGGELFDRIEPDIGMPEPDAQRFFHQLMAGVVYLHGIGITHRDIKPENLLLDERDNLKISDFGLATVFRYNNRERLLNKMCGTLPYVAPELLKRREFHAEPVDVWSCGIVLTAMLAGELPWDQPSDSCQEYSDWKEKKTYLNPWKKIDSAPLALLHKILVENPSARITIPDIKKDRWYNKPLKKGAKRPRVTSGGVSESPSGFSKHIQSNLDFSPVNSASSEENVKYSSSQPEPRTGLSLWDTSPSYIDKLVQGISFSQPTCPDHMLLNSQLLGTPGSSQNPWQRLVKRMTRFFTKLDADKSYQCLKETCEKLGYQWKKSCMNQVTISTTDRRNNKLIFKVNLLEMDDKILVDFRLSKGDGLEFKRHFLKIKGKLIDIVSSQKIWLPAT
FGR, sequence (P09769 whole entry): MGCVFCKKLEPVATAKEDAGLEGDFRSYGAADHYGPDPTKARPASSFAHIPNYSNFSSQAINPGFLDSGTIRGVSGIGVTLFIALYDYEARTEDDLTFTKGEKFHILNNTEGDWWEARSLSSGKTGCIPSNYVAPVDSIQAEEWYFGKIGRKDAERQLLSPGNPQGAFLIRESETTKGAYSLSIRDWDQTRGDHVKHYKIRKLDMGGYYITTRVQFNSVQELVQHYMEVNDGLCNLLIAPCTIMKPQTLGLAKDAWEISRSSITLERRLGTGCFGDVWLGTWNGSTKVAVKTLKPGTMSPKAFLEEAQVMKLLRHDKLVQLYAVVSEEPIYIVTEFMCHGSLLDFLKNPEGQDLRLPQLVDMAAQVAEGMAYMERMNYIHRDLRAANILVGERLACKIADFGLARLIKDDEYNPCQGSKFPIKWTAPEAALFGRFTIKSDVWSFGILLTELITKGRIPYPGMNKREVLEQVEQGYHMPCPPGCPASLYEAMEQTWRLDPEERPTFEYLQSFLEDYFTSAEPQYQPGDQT
PKNB(M.tuberculosis), sequence (P9WI81 whole entry): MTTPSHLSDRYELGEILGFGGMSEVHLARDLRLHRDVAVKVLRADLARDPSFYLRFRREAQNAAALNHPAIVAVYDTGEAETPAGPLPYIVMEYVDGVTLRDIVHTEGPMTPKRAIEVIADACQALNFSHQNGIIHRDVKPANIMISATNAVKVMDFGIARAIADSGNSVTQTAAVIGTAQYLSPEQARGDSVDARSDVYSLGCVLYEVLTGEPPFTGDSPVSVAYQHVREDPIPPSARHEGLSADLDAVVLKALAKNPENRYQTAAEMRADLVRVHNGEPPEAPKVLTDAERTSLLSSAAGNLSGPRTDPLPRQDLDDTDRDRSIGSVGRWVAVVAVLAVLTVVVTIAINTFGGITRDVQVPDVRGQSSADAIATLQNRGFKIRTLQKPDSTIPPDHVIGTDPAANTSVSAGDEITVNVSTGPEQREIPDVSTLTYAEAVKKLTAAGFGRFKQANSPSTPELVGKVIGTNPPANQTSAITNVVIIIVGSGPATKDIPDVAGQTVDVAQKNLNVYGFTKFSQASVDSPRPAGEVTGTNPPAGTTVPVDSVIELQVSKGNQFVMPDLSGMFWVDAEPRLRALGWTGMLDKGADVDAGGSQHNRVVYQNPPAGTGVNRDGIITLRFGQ
BRK, sequence (Q13882 whole entry): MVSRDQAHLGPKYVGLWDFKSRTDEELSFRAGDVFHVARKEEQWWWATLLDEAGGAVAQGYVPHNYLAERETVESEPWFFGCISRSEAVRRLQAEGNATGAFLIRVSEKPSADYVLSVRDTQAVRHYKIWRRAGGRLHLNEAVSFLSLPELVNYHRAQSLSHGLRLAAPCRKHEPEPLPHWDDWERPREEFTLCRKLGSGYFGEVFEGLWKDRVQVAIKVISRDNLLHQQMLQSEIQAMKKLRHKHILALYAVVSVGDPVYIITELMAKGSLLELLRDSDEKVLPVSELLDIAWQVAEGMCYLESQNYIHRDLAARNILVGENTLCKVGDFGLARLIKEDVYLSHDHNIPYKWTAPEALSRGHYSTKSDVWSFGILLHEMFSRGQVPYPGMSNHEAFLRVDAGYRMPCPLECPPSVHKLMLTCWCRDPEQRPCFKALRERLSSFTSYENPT
NEK6, sequence (Q9HC98 whole entry): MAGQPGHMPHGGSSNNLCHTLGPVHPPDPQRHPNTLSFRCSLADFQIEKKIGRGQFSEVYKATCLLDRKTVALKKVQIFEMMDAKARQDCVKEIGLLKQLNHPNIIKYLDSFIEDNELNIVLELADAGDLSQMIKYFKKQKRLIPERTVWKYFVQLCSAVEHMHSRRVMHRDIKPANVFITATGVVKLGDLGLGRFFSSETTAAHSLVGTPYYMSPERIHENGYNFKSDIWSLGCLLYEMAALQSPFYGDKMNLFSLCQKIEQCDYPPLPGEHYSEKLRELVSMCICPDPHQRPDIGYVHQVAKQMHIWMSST
TIE2, sequence (Q02763 23-1124): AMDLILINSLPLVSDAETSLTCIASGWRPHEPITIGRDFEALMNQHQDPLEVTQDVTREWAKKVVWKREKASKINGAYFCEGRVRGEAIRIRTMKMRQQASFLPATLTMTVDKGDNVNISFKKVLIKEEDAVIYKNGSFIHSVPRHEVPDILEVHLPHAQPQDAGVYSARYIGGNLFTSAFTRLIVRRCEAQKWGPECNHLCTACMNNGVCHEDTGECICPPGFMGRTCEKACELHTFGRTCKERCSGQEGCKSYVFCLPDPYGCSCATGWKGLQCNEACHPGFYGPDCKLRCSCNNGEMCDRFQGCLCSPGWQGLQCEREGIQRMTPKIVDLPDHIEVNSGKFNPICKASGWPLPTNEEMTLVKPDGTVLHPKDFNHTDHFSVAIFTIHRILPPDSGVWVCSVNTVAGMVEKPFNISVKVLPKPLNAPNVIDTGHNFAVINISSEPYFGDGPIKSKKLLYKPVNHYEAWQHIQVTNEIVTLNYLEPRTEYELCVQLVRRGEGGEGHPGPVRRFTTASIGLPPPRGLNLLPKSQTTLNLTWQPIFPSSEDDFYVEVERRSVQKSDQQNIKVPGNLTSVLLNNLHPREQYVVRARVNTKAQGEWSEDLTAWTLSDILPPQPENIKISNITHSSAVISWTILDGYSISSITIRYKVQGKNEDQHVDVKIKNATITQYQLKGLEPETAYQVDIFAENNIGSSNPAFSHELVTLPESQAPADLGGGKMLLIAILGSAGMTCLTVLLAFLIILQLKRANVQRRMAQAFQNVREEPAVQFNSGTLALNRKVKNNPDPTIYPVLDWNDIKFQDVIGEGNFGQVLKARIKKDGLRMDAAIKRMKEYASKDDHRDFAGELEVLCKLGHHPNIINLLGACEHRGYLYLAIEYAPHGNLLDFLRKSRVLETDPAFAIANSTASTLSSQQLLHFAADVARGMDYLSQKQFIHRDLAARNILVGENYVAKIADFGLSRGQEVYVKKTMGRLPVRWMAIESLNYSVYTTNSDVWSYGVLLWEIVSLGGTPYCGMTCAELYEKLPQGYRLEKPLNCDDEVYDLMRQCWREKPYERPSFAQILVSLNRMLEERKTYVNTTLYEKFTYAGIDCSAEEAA

CN1C(=O)[C@@H](N2CCc3c(nn(Cc4ccccc4)c3C(N)=O)C2=O)COc2cc(Cl)ccc21 [Compound 10, (S)-2-benzyl-6-(8-chloro-5-methyl-4-oxo-2,3,4,5-tetrahydrobenzo[b][1,4]oxazepin-3-yl)-7-oxo-4,5,6,7-tetrahydro-2H-pyrazolo[3,4-c]pyridine-3-carboxamide]
remaining binding at 0.1 µM (TGFBR1): 100% | remaining binding at 1 µM (ROCK1): 69% | remaining binding at 1 µM (LATS2): 69% | remaining binding at 0.1 µM (PRKCD): 83% | remaining binding at 1 µM (SGK2): 95% | remaining binding at 1 µM (TRKC): 64% | remaining binding at 1 µM (p38-gamma): 70% | remaining binding at 1 µM (AURKA): 72% | remaining binding at 1 µM (PDGFRA): 87% | remaining binding at 1 µM (PIP5K2C): 92% | remaining binding at 0.1 µM (YSK1): 97% | remaining binding at 1 µM (SIK): 91% | remaining binding at 0.1 µM (TIE2): 95% | remaining binding at 0.1 µM (MLK1): 89% | remaining binding at 0.1 µM (NEK6): 78% | remaining binding at 1 µM (CHEK1; 1000 nM): 100% | remaining binding at 0.1 µM (CHEK1; compound concentration 100 nM, Entrez CHEK1): 86% | remaining binding at 1 µM (FGR; 1000 nM): 100% | remaining binding at 0.1 µM (FGR; compound concentration 100 nM, Entrez FGR): 77% | remaining binding at 1 µM (CDC2L5; 1000 nM): 100% | remaining binding at 0.1 µM (CDC2L5; compound concentration 100 nM, Entrez CDK13): 100% | remaining binding at 0.1 µM [1]: 81% | remaining binding at 0.1 µM (STK35): 87% | remaining binding at 1 µM (PFTAIRE2): 90% | remaining binding at 0.1 µM (STK16): 80% | remaining binding at 1 µM (PKNB(M.tuberculosis)): 83% | remaining binding at 0.1 µM (ULK2): 80% | remaining binding at 0.1 µM (SIK2): 71% | remaining binding at 1 µM (FLT3-autoinhibited): 94% | remaining binding at 1 µM (PDGFRB): 87% | remaining binding at 1 µM (KIT-autoinhibited): 97% | remaining binding at 0.1 µM (PAK6): 93% | remaining binding at 0.1 µM [2]: 75% | remaining binding at 0.1 µM (NEK4): 91% | remaining binding at 1 µM (BRK): 87% | remaining binding at 1 µM (MAP4K2): 88% | remaining binding at 1 µM (PAK4): 73%

Reference: paper PMC12090182, “Repurposing of the RIPK1-Selective Benzo[1,4]oxazepin-4-one Scaffold for the Development of a Type III LIMK1/2 Inhibitor” (ACS Chemical Biology, 2025)
